Data from the NIST ThermoML archive (doi:10.1016/j.fluid.2014.04.021).

Conditions: 101 kPa, Liquid, Vibrating tube method

C1CCC2=NCCCN2CC1 [1,8-diaza-7-bicyclo[5.4.0]undecene]
Conditions | mass density [kg/m3]
293.15 K | 1019.84
298.15 K | 1016.15
303.15 K | 1012.45
308.15 K | 1008.73
313.15 K | 1005
318.15 K | 1001.25
323.15 K | 997.479
328.15 K | 993.692
333.15 K | 989.886
338.15 K | 986.062
343.15 K | 982.224
348.15 K | 978.366
353.15 K | 974.493
358.15 K | 970.601
